US12398121B2 (Nuvation Bio Inc., priority 2018, dated 2025)
Where two headings read alike, the source gives them in different places.

How the values were obtained:
22RV1 cells = test: Cell proliferation assay (CellTiter Glo), 22RV1; format: cell-based; conditions: Homo sapiens, 22Rv1, 72 h, read-out: 22RV1 IC50
Procedure: (§1) IC50 values were calculated and graphed using the model “log(inhibitor) vs. response—Variable slope” included in GraphPad Prism 5 (San Diego, CA). The Ki values were further calculated using the equation below where [L] was the radioligand concentration (1 nM) using in this study. Kd value was 0.332 nM. Ki=IC50/(1+[L]/Kd) c. AR transactivation: Human AR cloned into a CMV vector backbone was used for the transactivation study. HEK-293 cells were plated at 80,000 cells per well of a 24 well plate in DME+5% csFBS. Twenty four hours later, the cells were transfected using Lipofectamine (Invitrogen, Carlsbad, CA) with 0.25 μg GRE-LUC, 0.01 μg CMV-LUC (renilla luciferase) and 25 ng of the AR in OPTIMEM medium. The cells were treated 24 hrs after transfection with various ligands (10^−12 to 10^−5 M final concentrations) and luciferase assay were performed 48 hours after transfection. Firefly values were normalized to renilla luciferase values and the values were represented as relative light units (RLU). Agonist and antagonist assays for the test article were performed in the absence and in the combination with 0.1 nM R1881, respectively. Data were represented as EC50 (for agonists) and IC50 (for antagonists) obtained from four parameter logistics curve. Cell culture and proliferation assays: LNCaP, PC-3, 22RV1, MCF-7, HT-29, and HCT-116 cells were procured from American Type Culture Collection (ATCC). Cells were cultured in medium recommended by the ATCC. Cell culture medium was obtained from Fisher scientific (Waltham, MA) and serum was obtained from Hyclone (San Angelo, TX).
(§2) Cells were plated at varying density in the respective growth medium in 96 well plates. 24 hr later, cells were treated, in triplicate or quadruplicate, with test articles prepared in a range of concentrations by series dilution of DMSO stock solutions in growth medium and incubated for three to seven days. The number of viable 22RV1 and HT-29 cells was measured using CellTiter Glo assay (CTG, Promega, Madison, WI) after three days of treatment. The other types of cancer cells were re-treated at three or four days and the number of viable cells was measured using CTG assay after a total treatment time of six or seven days. Cell viability data were plotted using GraphPad Prism (GraphPad Software, Inc., San Diego, CA). In addition, a nonlinear regression model with a sigmoidal dose response and variable slope within GraphPad Prism was used to calculate the IC50 value of individual test articles. Additional cell proliferation assays: Other cancer cell lines are tested in a cell proliferation assay. For example, SK-OV-3 or OVCAR3 ovarian cancer cells are tested. Cells are cultured in medium recommended by the supplier (e.g., ATCC or JCRB Cell Bank), at 37° C. in a 5% CO2 environment. For the proliferation assay, cells are plated in the growth medium in 96 well plates. Seeding density is adjusted according to the cell type. 24 hr later, cells are treated, in triplicate or quadruplicate, with test articles prepared in a range of concentrations by series dilution of DMSO stock solutions in growth medium, and typically incubated for three to seven days, with test article-containing medium replaced after three or four days. The number of viable cells is measured using CellTiter Glo assay (CTG, Promega, Madison, WI) or similar. Cell viability data are plotted using GraphPad Prism (GraphPad Software, Inc., San Diego, CA). In addition, a nonlinear regression model with a sigmoidal dose response and variable slope within GraphPad Prism is used to calculate the IC50 value of individual test articles. Similarly, HEK-293 and HeLa calls can also be tested by methods known in the art. • f. Nuclear translocation: LNCaP cells are plated on coverslips in 24 well plates in growth medium. Twenty-four hours after plating, medium is changed to RPMI+1% csFBS and the cells are maintained in this medium for two days. Medium is replaced again and the cells are treated. […]

HT-29 cells = test: Cell proliferation assay (CellTiter Glo), HT-29; format: cell-based; conditions: Homo sapiens, HT-29, 72 h, read-out: HT-29 IC50
Procedure: as §1, §2

[1] = cell growth inhibition, three days of treatment

Row | Structure (SMILES) | IC50 (22RV1 cells) | IC50 (22RV1 cells; [1]) | other results
1 | C[C@](O)(CS(=O)(=O)c1ccc(NCCN2CCN(C(=O)c3cc(Cc4n[nH]c(=O)c5ccccc45)ccc3F)CC2)cc1)C(=O)Nc1ccc(C#N)c(C(F)(F)F)c1 [Compound 1.99, (R)-N-(4-cyano-3-(trifluoromethyl)phenyl)-3-(4-(2-(4-(2-fluoro-5-((4-oxo-3,4-dihydrophthalazin-1-yl)methyl)benzoyl)piperazin-1-yl)ethylamino)phenylsulfonyl)-2-hydroxy-2-methylpropanamide] | 3.6 µM | – | –
2 | C[C@]12CCC(=O)C[C@@H]1CC[C@@H]1[C@@H]2CC[C@@]2(C)[C@H]1CC[C@@]2(O)C#CC(=O)N1CCN(C(=O)c2cc(Cc3n[nH]c(=O)c4ccccc34)ccc2F)CC1 [Compound 1.116, 4-(4-fluoro-3-(4-(3-((5S,8R,9S,10S,13S,14S,17S)-17-hydroxy-10,13-dimethyl-3-oxohexadecahydro-1H-cyclopenta[a]phenanthren-17-yl)propioloyl)piperazine-1-carbonyl)benzyl)phthalazin-1(2H)-one] | – | 2.6 µM | –
3 | C[C@]12CCC(O)C[C@@H]1CC[C@@H]1[C@@H]2CC[C@]2(C)[C@@H](OCCCCCC(=O)N3CCN(C(=O)c4cc(Cc5n[nH]c(=O)c6ccccc56)ccc4F)CC3)CC[C@@H]12 (stereo partly drawn) [Compound 1.111, 4-(4-fluoro-3-(4-(6-((5S,8R,9S,10S,13S,14S,17S)-3-hydroxy-10,13-dimethylhexadecahydro-1H-cyclopenta[a]phenanthren-17-yloxy)hexanoyl)piperazine-1-carbonyl)benzyl)phthalazin-1(2H)-one] | – | 0.89 µM | –
4 | C[C@]12CCC(=O)C[C@@H]1CC[C@@H]1[C@@H]2CC[C@@]2(C)[C@H]1CC[C@@]2(O)C#CCN1CCN(C(=O)c2cc(Cc3n[nH]c(=O)c4ccccc34)ccc2F)CC1 [Compound 1.118, 4-(4-fluoro-3-(4-(3-((5S,8R,9S,10S,13S,14S,17S)-17-hydroxy-10,13-dimethyl-3-oxohexadecahydro-1H-cyclopenta[a]phenanthren-17-yl)prop-2-ynyl)piperazine-1-carbonyl)benzyl)phthalazin-1(2H)-one] | – | 9.7 µM | –
5 | C[C@](O)(CS(=O)(=O)c1ccc(NCC(=O)N2CCN(C(=O)c3cc(Cc4n[nH]c(=O)c5ccccc45)ccc3F)CC2)cc1)C(=O)Nc1ccc(C#N)c(C(F)(F)F)c1 [Compound 1.98, (R)-N-(4-cyano-3-(trifluoromethyl)phenyl)-3-(4-(2-(4-(2-fluoro-5-((4-oxo-3,4-dihydrophthalazin-1-yl)methyl)benzoyl)piperazin-1-yl)-2-oxoethylamino)phenylsulfonyl)-2-hydroxy-2-methylpropanamide] | 3.5 µM | – | –
6 | C[C@]12CCC(=O)C[C@@H]1CC[C@@H]1[C@@H]2CC[C@@]2(C)[C@H]1CC[C@@]2(O)c1cn(CC(=O)N2CCN(C(=O)c3cc(Cc4n[nH]c(=O)c5ccccc45)ccc3F)CC2)nn1 [Compound 1.107, 4-(4-fluoro-3-(4-(2-(4-((5S,8R,9S,10S,13S,14S,17S)-17-hydroxy-10,13-dimethyl-3-oxohexadecahydro-1H-cyclopenta[a]phenanthren-17-yl)-1H-1,2,3-triazol-1-yl)acetyl)piperazine-1-carbonyl)benzyl)phthalazin-1(2H)-one] | – | 1.3 µM | –
7 | C[C@]12CCC(=O)C[C@@H]1CC[C@@H]1[C@@H]2CC[C@]2(C)[C@@H](OCC(=O)N3CCN(C(=O)c4cc(Cc5n[nH]c(=O)c6ccccc56)ccc4F)CC3)CC[C@@H]12 [Compound 1.110, 4-(3-(4-(2-((5S,8R,9S,10S,13S,14S,17S)-10,13-dimethyl-3-oxohexadecahydro-1H-cyclopenta[a]phenanthren-17-yloxy)acetyl)piperazine-1-carbonyl)-4-fluorobenzyl)phthalazin-1(2H)-one] | – | 0.84 µM | IC50 (HT-29 cells; [1]): 9.5 µM
8 | C[C@]12CCC(F)(F)C[C@@H]1CC[C@@H]1[C@@H]2CC[C@]2(C)[C@@H](OCCCCCC(=O)N3CCN(C(=O)c4cc(Cc5n[nH]c(=O)c6ccccc56)ccc4F)CC3)CC[C@@H]12 [Compound 1.114, 4-(3-(4-(6-((5S,8R,9S,10S,13S,14S,17S)-3,3-difluoro-10,13-dimethylhexadecahydro-1H-cyclopenta[a]phenanthren-17-yloxy)hexanoyl)piperazine-1-carbonyl)-4-fluorobenzyl)phthalazin-1(2H)-one] | – | 1.3 µM | –
9 | C[C@]12CCC(=O)C[C@@H]1CC[C@@H]1[C@@H]2CC[C@@]2(C)[C@H]1CC[C@@]2(O)CCC(=O)N1CCN(C(=O)c2cc(Cc3n[nH]c(=O)c4ccccc34)ccc2F)CC1 (stereo in doubt) [Compound 1.117, 4-(4-fluoro-3-(4-(3-((5S,8R,9S,10S,13S,14S,17R)-17-hydroxy-10,13-dimethyl-3-oxohexadecahydro-1H-cyclopenta[a]phenanthren-17-yl)propanoyl)piperazine-1-carbonyl)benzyl)phthalazin-1(2H)-one] | – | 0.44 µM | –
10 | C[C@](O)(CS(=O)(=O)c1ccc(NCCCCCC(=O)N2CCN(C(=O)c3cc(Cc4n[nH]c(=O)c5ccccc45)ccc3F)CC2)cc1)C(=O)Nc1ccc(C#N)c(C(F)(F)F)c1 [Compound 1.68, (R)-N-(4-cyano-3-(trifluoromethyl)phenyl)-3-(4-(6-(4-(2-fluoro-5-((4-oxo-3,4-dihydrophthalazin-1-yl)methyl)benzoyl)piperazin-1-yl)-6-oxohexylamino)phenylsulfonyl)-2-hydroxy-2-methylpropanamide] | 4.7 µM | – | IC50 (HT-29 cells): > 10 µM
11 | CC1(C)C(=O)N(c2ccc(C#N)c(C(F)(F)F)c2)C(=S)N1c1ccc(C(=O)NCCCCCCNCc2ccc(-c3[nH]c4cc(F)cc5c4c3CCNC5=O)cc2)c(F)c1 [Compound 1.5, 4-(3-(4-cyano-3-(trifluoromethyl)phenyl)-5,5-dimethyl-4-oxo-2-thioxoimidazolidin-1-yl)-2-fluoro-N-(6-((4-(8-fluoro-1-oxo-2,3,4,6-tetrahydro-1H-azepino[5,4,3-cd]indol-5-yl)benzyl)amino)hexyl)benzamide] | 4.5 µM | – | IC50 (HT-29 cells): 5 µM
12 | CCC(=C(c1ccc(O)cc1)c1ccc(OCCN2CCN(C(=O)c3cc(Cc4n[nH]c(=O)c5ccccc45)ccc3F)CC2)cc1)c1ccccc1 [Compound 2.14, 4-(4-fluoro-3-(4-(2-(4-(1-(4-hydroxyphenyl)-2-phenylbut-1-enyl)phenoxy)ethyl)piperazine-1-carbonyl)benzyl)pthalazin-1(2H)-one] | – | – | IC50 (HT-29 cells; [1]): > 30 µM
13 | C[C@]12CCC(=O)C[C@@H]1CC[C@@H]1[C@@H]2CC[C@@]2(C)[C@H]1CC[C@@]2(O)CCCN1CCN(C(=O)c2cc(Cc3n[nH]c(=O)c4ccccc34)ccc2F)CC1 [Compound 1.119, 4-(4-fluoro-3-(4-(3-((5S,8R,9S,10S,13S,14S,17R)-17-hydroxy-10,13-dimethyl-3-oxohexadecahydro-1H-cyclopenta[a]phenanthren-17-yl)propyl)piperazine-1-carbonyl)benzyl)phthalazin-1(2H)-one] | 2.9 µM | – | –
14 | CC1(C)C(=O)N(c2ccc(C#N)c(C(F)(F)F)c2)C(=S)N1c1ccc(C(=O)NCCCCCC(=O)N2CCN(C(=O)c3cc(Cc4n[nH]c(=O)c5ccccc45)ccc3F)CC2)c(F)c1 [Compound 1.1, 4-(3-(4-cyano-3-(trifluoromethyl)phenyl)-5,5-dimethyl-4-oxo-2-thioxoimidazolidin-1-yl)-2-fluoro-N-(6-(4-(2-fluoro-5-((4-oxo-3,4-dihydrophthalazin-1-yl)methyl)benzoyl)piperazin-1-yl)-6-oxohexyl)benzamide] | – | – | IC50 (HT-29 cells): 0.3 µM
